In general, IC50 refers to the concentration that inhibits the measured activity by half.

The values that follow come from paper PMC11085308, “Design, Synthesis and Biological Activity of Novel Methoxy- and Hydroxy-Substituted N-Benzimidazole-Derived Carboxamides” (Molecules, 2024).

In brackets after ≈: the same amount, converted by molar mass.

Data set [1] concerns H460 (lung carcinoma). The data set can be described thus: Antiproliferative activity in vitro, MTT assay, 72 h. Type of data set: cell-based. The note with it: Homo sapiens, NCI-H460, 72 h incubation. On the technique in general: Tetrazolium dyes change colour on reduction, which living cells bring about.
In data set [2] the test system is MCF-7 (human breast cancer). The data set is described as above. The class given is cell-based. The note with it: MCF7, 72 h incubation.
Data set [3] relates to E. coli efflux del. The data set can be described thus: microbe, parasite or virus in culture. The class given is cell-based, Escherichia coli. The note with it: broth microdilution, 16–24 h at 37 °C; unit inferred.
Data set [4] can be described thus: Ferric reducing/antioxidant power (FRAP assay). Also on record: FRAP: unit not given here. The note with it: Fe2+ equivalents, triplicate.
In data set [5] the test system is S. aureus ATCC 29213. The data set can be described thus: Antibacterial activity in vitro, broth microdilution MIC. Type of data set: cell-based, Staphylococcus aureus. The note with it: broth microdilution, 16–24 h at 37 °C; unit inferred. For orientation: Dilution methods test growth across graded concentrations, often in twofold steps.
The nature of data set [6]: Solubility in water, seen as precipitation during incubation. The class given is physicochemical. The note with it: precipitation observed during the incubation period. The text has this:
Therefore, it is not clear whether the observed antiproliferative activity is due to the biological activity of the compounds or to precipitation.

Data set [7] deals with E. coli ATCC 25922. The data set can be described thus: Antibacterial activity in vitro, broth microdilution MIC. The class given is cell-based, Escherichia coli. The note with it: 16–24 h at 37 °C, unit inferred.
Data set [8] concerns P. aeruginosa ATCC 27853. The data set is described as above. The class given is cell-based. The note with it: 16–24 h at 37 °C, unit inferred.
In data set [9] the test system is E. faecalis ATCC 29212. The data set is described as above. Type of data set: cell-based. The note with it: for Selectivity of antibacterial activity, in words: against the Gram-positive strain E. faecalis; for MIC E. faecalis ATCC 29212: broth microdilution, 16–24 h at 37 °C, unit inferred.
Data set [10] deals with A. baumannii ATCC 17978. Described as above. Type of data set: cell-based. The note with it: 16–24 h at 37 °C, unit inferred.
In data set [11] the test system is HCT 116 (colorectal carcinoma). The data set can be described thus: Antiproliferative activity in vitro, MTT assay, 72 h. Type of data set: cell-based. The note with it: Homo sapiens, 72 h incubation, '-' with footnote a = did not show biological activity due to precipitation.

Consider `COc1ccc(C(=O)Nc2nc3cc(C#N)ccc3n2C)c(O)c1` [Compound 12, N-(5-cyano-1-methyl-1H-benzo[d]imidazol-2-yl)-2-hydroxy-4-methoxybenzamide], for which the values for the IC50 in data set [1] and in [2] were above 100 µM and 3.1 µM, respectively. In data set [3], the MIC E. coli efflux del. was above 64 µM. The FRAP in data set [4] came out at 592.86 ± 13.86. The MIC S. aureus ATCC 29213 in data set [5] is above 64 µM. Moreover, the Solubility in water entry in data set [6] was “low solubility in water”. For the same compound, the MIC E. coli ATCC 25922 in data set [7] is above 64 µM. This compound also registered an MIC P. aeruginosa ATCC 27853 in [8] above 64 µM. The “Selectivity of antibacterial activity, in words” value in data set [9] is reported as “selective antibacterial activity”. Besides, the MIC E. faecalis ATCC 29212 in [9] came to 32 µM (≈ 10.3 µg/mL). In data set [10], this compound registered an MIC A. baumannii ATCC 17978 above 64 µM.

`COc1ccc(C(=O)Nc2nc3ccccc3[nH]2)c(O)c1` [Compound 7, N-(1H-benzo[d]imidazol-2-yl)-2-hydroxy-4-methoxybenzamide]: the values for the IC50 in [11], in data set [1] and in data set [2] were 26.4 ± 4.8 µM, above 100 µM and 36.3 ± 1.8 µM, respectively. The MIC E. coli efflux del. in data set [3] is above 64 µM. Also, in data set [4], the FRAP was 387.28 ± 7.56. In data set [5], this compound displayed an MIC S. aureus ATCC 29213 above 64 µM. The Solubility in water result in data set [6] is reported as “low solubility in water”. Further, the MIC E. coli ATCC 25922 in data set [7] is above 64 µM. The MIC P. aeruginosa ATCC 27853 in data set [8] is above 64 µM. For the same compound, in data set [9], the “Selectivity of antibacterial activity, in words” value is recorded as “selective antibacterial activity”. Moreover, in [9], the MIC E. faecalis ATCC 29212 stood at 16 µM (≈ 4.53 µg/mL). In [10], this compound returned an MIC A. baumannii ATCC 17978 above 64 µM.
